Measured values reported in ChEMBL document CHEMBL3885861, “Open TG-GATES”.

Species: Rattus norvegicus
Assay: Open TG-GATES - Regimen: Daily Repeat
Format: toxicity, organism-based, Sprague-Dawley
Parameters: regimen Daily Repeat, gender Male, age 6 weeks
Conditions: in vivo, po, route gavage; for Bas / Eos / Fbg / Ht / MCHC / Mono / Plat / RBC / Ret / WBC / MCV: tissue Blood; for KIDNEY_L / KIDNEY_R / KIDNEY_TOTAL: tissue Kidney; for ALT / AST / CRE / DBIL / GLC / IP / K / LDH / PL / RALB / TBIL / TC / TG / TP / gamma-GTP: tissue Plasma
[1] = 0 mg/kg, 72 h, dose level Control, time 3 day
[2] = 0 mg/kg, […], dose level Control, time 7 day
[3] = 0 mg/kg, […], dose level Control, time 14 day
[4] = 0 mg/kg, […], dose level Control, time 28 day
[5] = 10 mg/kg, 72 h, dose level Low, time 3 day
[6] = 10 mg/kg, […], dose level Low, time 7 day
[7] = 10 mg/kg, […], dose level Low, time 14 day
[8] = 10 mg/kg, […], dose level Low, time 28 day

CC(C)OC(=O)C(C)(C)Oc1ccc(C(=O)c2ccc(Cl)cc2)cc1 [FENOFIBRATE]
TERMINAL_BW [1]: 218.5 g | Bas [1]: 0.2% | Eos [1]: 1.2% | Fbg [1]: 275 mg/dL | Ht [1]: 39.9% | MCHC [1]: 33% | Mono [1]: 3.2% | Plat [1]: 108.4 x10_4/uL | RBC [1]: 625.4 x10_4/ul | Ret [1]: 7.7% | WBC [1]: 80.3 x10_2/uL | KIDNEY_L [1]: 1 g | KIDNEY_R [1]: 0.9 g | KIDNEY_TOTAL [1]: 1.9 g | ALT [1]: 44.4 IU/L | AST [1]: 69 IU/L | CRE [1]: 0.2 mg/dL | DBIL [1]: 0.014 mg/dL | GLC [1]: 180.4 mg/dL | IP [1]: 8.3 mg/dL | K [1]: 4.3 meq/L | LDH [1]: 75.2 IU/L | PL [1]: 150.2 mg/dL | RALB [1]: 2.6 g/dL | TBIL [1]: 0.042 mg/dL | TC [1]: 76.8 mg/dL | TG [1]: 86 mg/dL | TP [1]: 5.6 g/dL | gamma-GTP [1]: 1.2 IU/L | TERMINAL_BW [2]: 254.4 g | TERMINAL_BW [3]: 310.8 g | TERMINAL_BW [4]: 390.8 g | Bas [2]: 0% | Eos [2]: 1% | Fbg [2]: 310.4 mg/dL | Ht [2]: 41.5% | MCHC [2]: 32.7% | Mono [2]: 2.8% | Plat [2]: 113.6 x10_4/uL | RBC [2]: 650 x10_4/ul | Ret [2]: 6.1% | WBC [2]: 94.9 x10_2/uL | Bas [3]: 0% | Eos [3]: 1% | Fbg [3]: 309.8 mg/dL | Ht [3]: 43.2% | MCHC [3]: 33.2% | Mono [3]: 2.2% | Plat [3]: 111 x10_4/uL | RBC [3]: 692.6 x10_4/ul | Ret [3]: 4.5% | WBC [3]: 81.5 x10_2/uL | Bas [4]: 0.4% | Eos [4]: 1.2% | Fbg [4]: 270.6 mg/dL | Ht [4]: 45.9% | MCHC [4]: 33.9% | MCV [4]: 59.2 fL | Mono [4]: 2.2% | Plat [4]: 101.9 x10_4/uL | RBC [4]: 774.4 x10_4/ul | Ret [4]: 2.5% | WBC [4]: 107.1 x10_2/uL | KIDNEY_L [2]: 1.1 g | KIDNEY_R [2]: 1.1 g | KIDNEY_TOTAL [2]: 2.1 g | KIDNEY_L [3]: 1.2 g | KIDNEY_R [3]: 1.2 g | KIDNEY_TOTAL [3]: 2.4 g | KIDNEY_L [4]: 1.3 g | KIDNEY_R [4]: 1.3 g | KIDNEY_TOTAL [4]: 2.5 g | ALT [2]: 47.8 IU/L | AST [2]: 72.2 IU/L | CRE [2]: 0.2 mg/dL | DBIL [2]: 0.012 mg/dL | GLC [2]: 187.8 mg/dL | IP [2]: 7.9 mg/dL | K [2]: 4.3 meq/L | LDH [2]: 89.6 IU/L | PL [2]: 147.8 mg/dL | RALB [2]: 2.7 g/dL | TBIL [2]: 0.036 mg/dL | TC [2]: 72.2 mg/dL | TG [2]: 122.6 mg/dL | TP [2]: 5.8 g/dL | gamma-GTP [2]: 1 IU/L | ALT [3]: 40.8 IU/L | AST [3]: 65.8 IU/L | CRE [3]: 0.2 mg/dL | DBIL [3]: 0.014 mg/dL | GLC [3]: 188.2 mg/dL | IP [3]: 7.5 mg/dL | K [3]: 4.3 meq/L | LDH [3]: 106.6 IU/L | PL [3]: 144.8 mg/dL | RALB [3]: 2.7 g/dL | TBIL [3]: 0.038 mg/dL | TC [3]: 64.6 mg/dL | TG [3]: 188 mg/dL | TP [3]: 5.9 g/dL | gamma-GTP [3]: 1 IU/L | ALT [4]: 40.2 IU/L | AST [4]: 65.8 IU/L | CRE [4]: 0.2 mg/dL | DBIL [4]: 0.012 mg/dL | GLC [4]: 186 mg/dL | IP [4]: 7.1 mg/dL | K [4]: 3.6 meq/L | LDH [4]: 90 IU/L | PL [4]: 142 mg/dL | RALB [4]: 2.8 g/dL | TBIL [4]: 0.042 mg/dL | TC [4]: 71.4 mg/dL | TG [4]: 117.8 mg/dL | TP [4]: 6.3 g/dL | gamma-GTP [4]: 1.2 IU/L | TERMINAL_BW [5]: 221.1 g | Bas [5]: 0.4% | Eos [5]: 1.4% | Fbg [5]: 269.8 mg/dL | Ht [5]: 39.2% | MCHC [5]: 33.1% | Mono [5]: 3% | Plat [5]: 113.1 x10_4/uL | RBC [5]: 620.2 x10_4/ul | Ret [5]: 7.2% | WBC [5]: 80.5 x10_2/uL | KIDNEY_L [5]: 1 g | KIDNEY_R [5]: 1 g | KIDNEY_TOTAL [5]: 2 g | ALT [5]: 49 IU/L | AST [5]: 76.6 IU/L | CRE [5]: 0.2 mg/dL | DBIL [5]: 0.012 mg/dL | GLC [5]: 182.8 mg/dL | IP [5]: 8.3 mg/dL | K [5]: 4.1 meq/L | LDH [5]: 74 IU/L | PL [5]: 148.8 mg/dL | RALB [5]: 2.6 g/dL | TBIL [5]: 0.04 mg/dL | TC [5]: 80.4 mg/dL | TG [5]: 52.4 mg/dL | TP [5]: 5.6 g/dL | gamma-GTP [5]: 1.2 IU/L | TERMINAL_BW [6]: 253.9 g | TERMINAL_BW [7]: 314.5 g | TERMINAL_BW [8]: 385.8 g | Bas [6]: 0.2% | Eos [6]: 1% | Fbg [6]: 280.8 mg/dL | Ht [6]: 41% | MCHC [6]: 33.1% | Mono [6]: 2.2% | Plat [6]: 136.5 x10_4/uL | RBC [6]: 646.8 x10_4/ul | Ret [6]: 6.2% | WBC [6]: 99.8 x10_2/uL | Bas [7]: 0% | Eos [7]: 1% | Fbg [7]: 309.6 mg/dL | Ht [7]: 42.6% | MCHC [7]: 33.5% | Mono [7]: 3% | Plat [7]: 123.9 x10_4/uL | RBC [7]: 687.6 x10_4/ul | Ret [7]: 4.5% | WBC [7]: 88.4 x10_2/uL | Bas [8]: 0% | Eos [8]: 1.2% | Fbg [8]: 267 mg/dL | Ht [8]: 44.6% | MCHC [8]: 33.7% | MCV [8]: 57.9 fL | Mono [8]: 2.4% | Plat [8]: 105.5 x10_4/uL | RBC [8]: 770.4 x10_4/ul | Ret [8]: 2.1% | WBC [8]: 88.4 x10_2/uL | KIDNEY_L [6]: 1.1 g | KIDNEY_R [6]: 1.1 g | KIDNEY_TOTAL [6]: 2.1 g | KIDNEY_L [7]: 1.3 g | KIDNEY_R [7]: 1.3 g | KIDNEY_TOTAL [7]: 2.6 g | KIDNEY_L [8]: 1.5 g | KIDNEY_R [8]: 1.5 g | KIDNEY_TOTAL [8]: 2.9 g | ALT [6]: 45.2 IU/L | AST [6]: 72.8 IU/L | CRE [6]: 0.2 mg/dL | DBIL [6]: 0.01 mg/dL | GLC [6]: 187.2 mg/dL | IP [6]: 8.1 mg/dL | K [6]: 4.4 meq/L | LDH [6]: 101.2 IU/L | PL [6]: 131.8 mg/dL | RALB [6]: 2.7 g/dL | TBIL [6]: 0.026 mg/dL | TC [6]: 65.6 mg/dL | TG [6]: 74.2 mg/dL | TP [6]: 5.8 g/dL | gamma-GTP [6]: 1 IU/L | ALT [7]: 39.8 IU/L | AST [7]: 64 IU/L | CRE [7]: 0.2 mg/dL | DBIL [7]: 0.014 mg/dL | GLC [7]: 193.2 mg/dL | IP [7]: 7.7 mg/dL | K [7]: 4.3 meq/L | LDH [7]: 84 IU/L | PL [7]: 132.4 mg/dL | RALB [7]: 2.7 g/dL | TBIL [7]: 0.03 mg/dL | TC [7]: 57.2 mg/dL | TG [7]: 124.8 mg/dL | TP [7]: 6 g/dL | gamma-GTP [7]: 0.8 IU/L | ALT [8]: 40.2 IU/L | AST [8]: 63.2 IU/L | CRE [8]: 0.2 mg/dL | DBIL [8]: 0.01 mg/dL | GLC [8]: 187.6 mg/dL | IP [8]: 7.2 mg/dL | K [8]: 4.2 meq/L | LDH [8]: 101.6 IU/L | PL [8]: 136.2 mg/dL | RALB [8]: 2.8 g/dL | TBIL [8]: 0.028 mg/dL | TC [8]: 64.6 mg/dL | TG [8]: 100 mg/dL | TP [8]: 6.4 g/dL | gamma-GTP [8]: 1 IU/L
